Laboratory results published in patent publication US12479847B2 (DANA-FARBER CANCER INSTITUTE, INC., priority 2019, dated 2025).
Like-named read-outs stand apart in the source and are kept apart here.

Columns and labels:
Experiment in all cases: KINOMEscan (ScanMAX) kinase profiling
Type in all cases: binding
panel of 468 kinases [1] = biological target: T1, panel of 468 kinases (Homo sapiens, UniProt O95835); settings: LATS1; 1 μM; read-out: % control
T1 construct: purchased KINOMEscan (ScanMAX) service
T1 sequence (O95835 1-1130): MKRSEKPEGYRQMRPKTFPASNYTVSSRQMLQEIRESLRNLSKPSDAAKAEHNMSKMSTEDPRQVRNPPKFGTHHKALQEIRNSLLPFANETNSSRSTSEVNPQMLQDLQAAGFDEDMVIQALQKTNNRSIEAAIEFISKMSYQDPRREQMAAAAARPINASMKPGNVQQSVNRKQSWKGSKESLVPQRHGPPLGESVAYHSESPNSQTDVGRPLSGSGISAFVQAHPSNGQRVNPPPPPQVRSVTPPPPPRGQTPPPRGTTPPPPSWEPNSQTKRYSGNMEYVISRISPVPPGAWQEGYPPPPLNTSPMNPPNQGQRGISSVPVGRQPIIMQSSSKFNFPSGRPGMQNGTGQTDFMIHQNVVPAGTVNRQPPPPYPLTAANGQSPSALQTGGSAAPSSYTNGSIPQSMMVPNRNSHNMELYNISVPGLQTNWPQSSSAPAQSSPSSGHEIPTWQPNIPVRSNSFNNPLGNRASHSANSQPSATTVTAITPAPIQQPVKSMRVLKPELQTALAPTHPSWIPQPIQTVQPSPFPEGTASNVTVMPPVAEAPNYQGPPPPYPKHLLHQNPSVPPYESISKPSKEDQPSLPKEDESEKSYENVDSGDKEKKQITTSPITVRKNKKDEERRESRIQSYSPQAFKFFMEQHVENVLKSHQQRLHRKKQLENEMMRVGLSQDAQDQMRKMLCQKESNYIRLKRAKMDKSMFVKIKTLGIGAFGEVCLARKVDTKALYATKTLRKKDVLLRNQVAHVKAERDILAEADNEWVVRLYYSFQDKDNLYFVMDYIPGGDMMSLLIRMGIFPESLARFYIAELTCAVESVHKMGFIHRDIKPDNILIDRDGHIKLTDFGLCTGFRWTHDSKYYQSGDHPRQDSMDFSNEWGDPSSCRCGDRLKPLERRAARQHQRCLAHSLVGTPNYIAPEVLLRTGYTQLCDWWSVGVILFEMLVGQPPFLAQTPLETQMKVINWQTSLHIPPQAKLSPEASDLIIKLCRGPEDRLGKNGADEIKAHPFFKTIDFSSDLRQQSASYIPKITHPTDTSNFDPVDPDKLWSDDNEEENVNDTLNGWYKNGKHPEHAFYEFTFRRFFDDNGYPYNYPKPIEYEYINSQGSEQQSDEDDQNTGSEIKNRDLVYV
Method: (§1) The kinase selectivity of inventive compounds 12, 75, and 77 was evaluated by KINOMEscan®. KINOMEscan® (ScanMAX™) analysis was performed against a near comprehensive panel of 468 kinases. The control percentage (% control) for inventive compounds at 1 μM in DMSO was determined by Equation 1: % control=(inventive compound−positive control)/(negative control−positive control)×100%, Equation 1
(§2) wherein the positive control is a compound with a % control value of 0% relative light units (RLU), and the negative control (i.e., DMSO) has % control value of 100% RLU. The enzyme selectivity in the present invention is defined as follows: inventive compounds are considered active for an enzyme when the observed % control is less than 35% (<35%).

panel of 468 kinases [2] = biological target: T2, panel of 468 kinases (Homo sapiens, UniProt P22694); settings: PKAC-beta; 1 μM; read-out: % control
T2 construct: purchased KINOMEscan (ScanMAX) service
Method: as §1, §2

panel of 468 kinases [3] = biological target: T3, panel of 468 kinases (Homo sapiens, UniProt Q13627); settings: DYRK1A; 1 μM; read-out: % control
T3 construct: purchased KINOMEscan (ScanMAX) service
Method: as §1, §2

panel of 468 kinases [4] = biological target: T4, panel of 468 kinases (Homo sapiens, UniProt Q9P1W9); settings: PIM2; 1 μM; read-out: % control
T4 construct: purchased KINOMEscan (ScanMAX) service
Method: as §1, §2

panel of 468 kinases [5] = biological target: T5, panel of 468 kinases (Homo sapiens, UniProt P53350); settings: PLK1; 1 μM; read-out: % control
T5 construct: purchased KINOMEscan (ScanMAX) service
Method: as §1, §2

panel of 468 kinases [6] = biological target: T6, panel of 468 kinases (Homo sapiens, UniProt Q00537); settings: PCTK2; 1 μM; read-out: % control
T6 construct: purchased KINOMEscan (ScanMAX) service
Method: as §1, §2

panel of 468 kinases [7] = biological target: T7, panel of 468 kinases (Homo sapiens, UniProt O14733); settings: MKK7; 1 μM; read-out: % control
T7 construct: purchased KINOMEscan (ScanMAX) service
T7 sequence (O14733 1-419): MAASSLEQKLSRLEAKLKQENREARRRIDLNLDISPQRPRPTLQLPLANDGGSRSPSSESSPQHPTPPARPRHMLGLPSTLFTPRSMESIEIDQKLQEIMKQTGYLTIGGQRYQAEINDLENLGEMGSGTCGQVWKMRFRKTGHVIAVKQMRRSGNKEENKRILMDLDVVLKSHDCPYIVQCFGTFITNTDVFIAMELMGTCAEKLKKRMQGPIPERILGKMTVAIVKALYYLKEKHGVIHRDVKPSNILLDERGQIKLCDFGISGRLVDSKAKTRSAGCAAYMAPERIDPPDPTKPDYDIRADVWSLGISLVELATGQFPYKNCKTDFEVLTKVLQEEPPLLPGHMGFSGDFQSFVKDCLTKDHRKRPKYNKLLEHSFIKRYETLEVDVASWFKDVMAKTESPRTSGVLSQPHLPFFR
Method: as §1, §2

panel of 468 kinases [8] = biological target: T8, panel of 468 kinases (Homo sapiens, UniProt P37023); settings: ACVRL1; 1 μM; read-out: % control
T8 construct: purchased KINOMEscan (ScanMAX) service
Method: as §1, §2

panel of 468 kinases [9] = biological target: T9, panel of 468 kinases (Homo sapiens, UniProt P10721); settings: 1 μM, read-out: % control
T9 construct: purchased KINOMEscan (ScanMAX) service
Method: as §1, §2

panel of 468 kinases [10] = biological target: T10, panel of 468 kinases (Homo sapiens, UniProt Q9H4A3); settings: WNK1; 1 μM; read-out: % control
T10 construct: purchased KINOMEscan (ScanMAX) service
Method: as §1, §2

panel of 468 kinases [11] = biological target: T11, panel of 468 kinases (Homo sapiens, UniProt Q04759); settings: PRKCQ; 1 μM; read-out: % control
T11 construct: purchased KINOMEscan (ScanMAX) service
Method: as §1, §2

T4 sequence (Q9P1W9 whole entry): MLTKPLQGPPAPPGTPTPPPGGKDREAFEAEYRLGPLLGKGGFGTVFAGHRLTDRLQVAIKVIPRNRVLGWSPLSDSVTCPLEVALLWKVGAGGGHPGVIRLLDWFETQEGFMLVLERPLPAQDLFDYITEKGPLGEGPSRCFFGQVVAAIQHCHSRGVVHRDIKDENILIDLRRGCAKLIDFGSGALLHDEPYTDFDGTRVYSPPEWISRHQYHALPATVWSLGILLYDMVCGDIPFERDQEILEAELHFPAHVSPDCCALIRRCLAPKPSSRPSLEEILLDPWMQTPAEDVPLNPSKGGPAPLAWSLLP
T5 sequence (P53350 whole entry): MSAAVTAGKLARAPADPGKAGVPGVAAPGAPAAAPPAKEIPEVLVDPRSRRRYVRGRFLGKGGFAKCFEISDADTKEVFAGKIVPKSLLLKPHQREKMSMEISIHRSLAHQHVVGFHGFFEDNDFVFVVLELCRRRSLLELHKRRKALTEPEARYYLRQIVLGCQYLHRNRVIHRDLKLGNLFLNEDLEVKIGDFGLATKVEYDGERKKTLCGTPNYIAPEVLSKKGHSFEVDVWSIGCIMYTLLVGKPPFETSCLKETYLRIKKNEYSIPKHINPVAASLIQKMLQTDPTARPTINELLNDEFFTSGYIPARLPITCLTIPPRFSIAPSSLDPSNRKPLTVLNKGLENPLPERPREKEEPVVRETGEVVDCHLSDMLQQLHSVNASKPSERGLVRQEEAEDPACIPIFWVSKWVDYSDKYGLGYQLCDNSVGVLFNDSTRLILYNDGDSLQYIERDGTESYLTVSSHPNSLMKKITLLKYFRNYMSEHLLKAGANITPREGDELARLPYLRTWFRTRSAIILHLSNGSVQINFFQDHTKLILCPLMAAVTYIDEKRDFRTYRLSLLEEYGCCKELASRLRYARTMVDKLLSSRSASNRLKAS
T10 sequence (Q9H4A3 whole entry): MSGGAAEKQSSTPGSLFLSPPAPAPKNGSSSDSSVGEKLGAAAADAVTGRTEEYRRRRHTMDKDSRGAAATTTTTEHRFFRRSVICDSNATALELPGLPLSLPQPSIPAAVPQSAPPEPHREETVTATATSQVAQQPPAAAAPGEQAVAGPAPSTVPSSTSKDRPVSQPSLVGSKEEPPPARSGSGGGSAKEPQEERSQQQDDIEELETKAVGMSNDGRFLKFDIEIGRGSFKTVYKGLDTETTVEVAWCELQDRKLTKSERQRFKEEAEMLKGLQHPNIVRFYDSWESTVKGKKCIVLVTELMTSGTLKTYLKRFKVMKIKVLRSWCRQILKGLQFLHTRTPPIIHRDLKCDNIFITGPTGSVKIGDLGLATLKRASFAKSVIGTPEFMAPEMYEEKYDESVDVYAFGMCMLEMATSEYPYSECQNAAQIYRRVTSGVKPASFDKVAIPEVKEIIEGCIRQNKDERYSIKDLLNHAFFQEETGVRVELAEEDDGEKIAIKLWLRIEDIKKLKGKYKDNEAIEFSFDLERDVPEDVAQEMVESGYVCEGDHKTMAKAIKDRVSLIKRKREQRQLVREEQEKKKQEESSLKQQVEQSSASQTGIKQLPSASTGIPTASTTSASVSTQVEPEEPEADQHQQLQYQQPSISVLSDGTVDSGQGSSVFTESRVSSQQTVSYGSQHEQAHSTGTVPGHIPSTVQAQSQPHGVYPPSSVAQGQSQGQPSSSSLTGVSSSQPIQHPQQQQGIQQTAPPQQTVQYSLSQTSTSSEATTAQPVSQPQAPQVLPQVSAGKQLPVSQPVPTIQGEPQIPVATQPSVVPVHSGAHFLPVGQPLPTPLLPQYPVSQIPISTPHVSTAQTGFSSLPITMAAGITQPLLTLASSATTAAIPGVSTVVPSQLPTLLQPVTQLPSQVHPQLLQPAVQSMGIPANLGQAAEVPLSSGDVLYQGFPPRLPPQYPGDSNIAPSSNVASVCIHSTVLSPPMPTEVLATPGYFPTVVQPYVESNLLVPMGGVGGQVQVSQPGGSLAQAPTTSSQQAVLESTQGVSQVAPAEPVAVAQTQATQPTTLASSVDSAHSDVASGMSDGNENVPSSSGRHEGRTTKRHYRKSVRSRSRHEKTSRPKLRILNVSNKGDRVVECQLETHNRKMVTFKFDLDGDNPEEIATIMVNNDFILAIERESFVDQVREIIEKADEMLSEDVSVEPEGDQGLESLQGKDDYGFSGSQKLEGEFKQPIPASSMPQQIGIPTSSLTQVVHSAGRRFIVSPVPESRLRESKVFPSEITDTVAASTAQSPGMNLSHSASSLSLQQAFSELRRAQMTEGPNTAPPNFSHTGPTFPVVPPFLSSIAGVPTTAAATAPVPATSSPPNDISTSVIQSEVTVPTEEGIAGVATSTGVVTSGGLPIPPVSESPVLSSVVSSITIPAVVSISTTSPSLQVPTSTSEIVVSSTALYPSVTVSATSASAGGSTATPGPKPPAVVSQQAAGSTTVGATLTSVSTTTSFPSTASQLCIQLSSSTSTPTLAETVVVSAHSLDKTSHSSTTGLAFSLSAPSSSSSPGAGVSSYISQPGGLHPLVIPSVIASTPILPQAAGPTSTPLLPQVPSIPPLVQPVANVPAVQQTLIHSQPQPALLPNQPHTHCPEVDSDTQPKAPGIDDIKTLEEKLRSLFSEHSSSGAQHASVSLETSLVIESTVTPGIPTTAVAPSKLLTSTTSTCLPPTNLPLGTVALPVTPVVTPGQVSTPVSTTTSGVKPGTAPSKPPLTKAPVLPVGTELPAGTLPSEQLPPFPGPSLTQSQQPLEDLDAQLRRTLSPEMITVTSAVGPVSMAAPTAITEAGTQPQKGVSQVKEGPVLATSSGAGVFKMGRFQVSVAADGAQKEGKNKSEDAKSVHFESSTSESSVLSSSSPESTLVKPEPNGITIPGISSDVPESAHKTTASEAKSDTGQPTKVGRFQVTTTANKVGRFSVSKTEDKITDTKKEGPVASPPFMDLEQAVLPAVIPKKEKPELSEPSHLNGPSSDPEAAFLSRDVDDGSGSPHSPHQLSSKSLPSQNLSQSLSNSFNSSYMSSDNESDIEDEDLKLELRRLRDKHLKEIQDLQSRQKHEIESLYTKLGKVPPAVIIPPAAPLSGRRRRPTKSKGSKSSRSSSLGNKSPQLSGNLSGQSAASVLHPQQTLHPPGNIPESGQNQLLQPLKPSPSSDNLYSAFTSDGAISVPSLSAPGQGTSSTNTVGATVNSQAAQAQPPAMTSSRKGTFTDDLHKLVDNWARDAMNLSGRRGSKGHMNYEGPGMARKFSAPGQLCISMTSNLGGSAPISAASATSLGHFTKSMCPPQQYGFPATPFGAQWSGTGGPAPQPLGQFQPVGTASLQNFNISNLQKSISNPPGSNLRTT
T11 sequence (Q04759 whole entry): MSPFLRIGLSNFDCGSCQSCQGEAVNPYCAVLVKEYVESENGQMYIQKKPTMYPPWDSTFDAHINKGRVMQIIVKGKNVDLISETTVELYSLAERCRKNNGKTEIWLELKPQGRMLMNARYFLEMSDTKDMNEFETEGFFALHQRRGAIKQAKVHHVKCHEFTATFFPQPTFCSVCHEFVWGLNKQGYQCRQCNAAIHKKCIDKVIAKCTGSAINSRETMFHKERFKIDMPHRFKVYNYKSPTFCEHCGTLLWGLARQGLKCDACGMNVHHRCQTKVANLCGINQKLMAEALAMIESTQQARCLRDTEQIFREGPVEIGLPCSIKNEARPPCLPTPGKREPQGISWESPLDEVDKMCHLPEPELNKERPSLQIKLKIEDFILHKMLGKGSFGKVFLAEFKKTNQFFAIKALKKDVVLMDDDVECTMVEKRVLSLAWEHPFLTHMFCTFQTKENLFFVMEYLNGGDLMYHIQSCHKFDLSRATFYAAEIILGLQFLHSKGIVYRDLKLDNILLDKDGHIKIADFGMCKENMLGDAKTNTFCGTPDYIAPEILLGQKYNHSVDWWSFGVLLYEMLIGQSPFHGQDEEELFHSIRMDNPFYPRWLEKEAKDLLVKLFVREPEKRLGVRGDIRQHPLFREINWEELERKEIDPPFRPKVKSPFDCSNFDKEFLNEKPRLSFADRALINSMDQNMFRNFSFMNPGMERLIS
T8 sequence (P37023 22-503): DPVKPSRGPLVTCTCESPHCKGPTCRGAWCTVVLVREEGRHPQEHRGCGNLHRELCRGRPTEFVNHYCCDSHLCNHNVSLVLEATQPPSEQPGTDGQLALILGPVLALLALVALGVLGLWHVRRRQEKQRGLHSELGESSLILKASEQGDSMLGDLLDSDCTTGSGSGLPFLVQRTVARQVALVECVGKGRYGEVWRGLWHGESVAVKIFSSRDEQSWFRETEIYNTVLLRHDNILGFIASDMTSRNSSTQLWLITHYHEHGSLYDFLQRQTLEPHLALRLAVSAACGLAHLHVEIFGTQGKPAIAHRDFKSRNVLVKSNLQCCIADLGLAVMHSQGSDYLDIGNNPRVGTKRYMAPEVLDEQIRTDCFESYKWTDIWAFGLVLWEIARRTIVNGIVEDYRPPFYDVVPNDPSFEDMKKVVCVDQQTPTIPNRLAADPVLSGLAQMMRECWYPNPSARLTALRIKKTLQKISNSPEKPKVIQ
T6 sequence (Q00537 whole entry): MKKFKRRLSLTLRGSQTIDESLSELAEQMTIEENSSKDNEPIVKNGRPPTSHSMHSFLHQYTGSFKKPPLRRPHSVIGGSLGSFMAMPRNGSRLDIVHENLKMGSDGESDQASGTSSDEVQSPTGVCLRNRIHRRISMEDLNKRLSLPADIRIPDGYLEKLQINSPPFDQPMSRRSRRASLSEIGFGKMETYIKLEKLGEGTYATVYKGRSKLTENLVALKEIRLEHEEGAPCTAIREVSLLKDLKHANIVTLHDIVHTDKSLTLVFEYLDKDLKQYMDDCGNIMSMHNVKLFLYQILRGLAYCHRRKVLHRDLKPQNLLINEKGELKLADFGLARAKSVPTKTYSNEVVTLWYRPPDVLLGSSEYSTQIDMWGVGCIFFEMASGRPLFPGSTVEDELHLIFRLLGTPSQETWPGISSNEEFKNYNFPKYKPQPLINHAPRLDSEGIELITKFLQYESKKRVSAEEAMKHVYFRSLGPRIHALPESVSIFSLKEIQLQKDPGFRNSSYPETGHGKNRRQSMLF

Row | SMILES | remaining binding at 1 µM (panel of 468 kinases [1]) | remaining binding at 1 µM (panel of 468 kinases [2]) | remaining binding at 1 µM (panel of 468 kinases [3]) | remaining binding at 1 µM (panel of 468 kinases [4]) | remaining binding at 1 µM (panel of 468 kinases [5]) | remaining binding at 1 µM (panel of 468 kinases [6]) | remaining binding at 1 µM (panel of 468 kinases [7]) | remaining binding at 1 µM (panel of 468 kinases [8]) | remaining binding at 1 µM (panel of 468 kinases [9]; KIT-autoinhibited) | remaining binding at 1 µM (panel of 468 kinases [9]; KIT) | remaining binding at 1 µM (panel of 468 kinases [10]) | remaining binding at 1 µM (panel of 468 kinases [11])
1 | CNc1nc(Nc2ccc(S(=O)(=O)N3CCC(N4CCOCC4)CC3)cc2OC)nc2[nH]cc(Cl)c12 [Compound 12, 5-chloro-N2-(2-methoxy-4-((4-morpholinopiperidin-1-yl)sulfonyl)phenyl)-N4-methyl-7H-pyrrolo[2,3-d]pyrimidine-2,4-diamine] | 100% | 100% | 14% | 99% | 82% | 100% | 100% | 100% | 95% | 100% | 100% | 100%
2 | CNc1nc(Nc2ccc(C(=O)N3CCC(N4CCOCC4)CC3)c3c2OCO3)nc2[nH]cc(Cl)c12 [Compound 75, (7-((5-chloro-4-(methylamino)-7H-pyrrolo[2,3-d]pyrimidin-2-yl)amino)benzo[d][1,3]dioxol-4-yl)(4-morpholinopiperidin-1-yl)methanone] | 100% | 100% | 8.9% | 100% | 78% | 100% | 96% | 100% | 68% | 65% | 100% | 100%
3 | CNc1nc(Nc2ccc(P3(=O)CCN(C4CCOCC4)CC3)cc2OC)nc2[nH]cc(Cl)c12 [Compound 77, 4-(4-((5-chloro-4-(methylamino)-7H-pyrrolo[2,3-d]pyrimidin-2-yl)amino)-3-methoxyphenyl)-1-(tetrahydro-2H-pyran-4-yl)-1,4-azaphosphinane 4-oxide] | 100% | 100% | 4.7% | 100% | 86% | 100% | 100% | 100% | 93% | 99% | 91% | 95%
